Series [1] has as its system Plutella xylostella (Diamond Back Moth). The series is described as follows: Example B14: comparison with state of the art, Plutella xylostella, larvicide, feeding/residual contact, preventive. Type of series: in vivo. How it is done: Plutella xylostella (Diamond Back Moth)
(Larvicide, Feeding/Residual Contact Activity, Preventive)
24-well microtiter plate (MTP) with artificial diet is treated with test solutions by pipetting. After drying, the MTP's are infested with larvae (L2)(10-15 per well). After an incubation period of 5 days, samples are checked for larval mortality, antifeedant and growth regulation.

For series [2], the system named is Heliothis virescens. The series is described as follows: Example B15: comparison with state of the art, Heliothis virescens ovo-larvicide test. Type of series: in vivo. Particulars: for inhibition at 0.8 ppm / inhibition at 3.1 ppm / inhibition at 12.5 ppm / inhibition at 50 ppm: Heliothis virescens, 96 h, read-out: Ovo-larvicidal activity (%) after 4 days. On the procedure:
Activity Against Heliothis virescens (Ovo-Larvicide Test)
(§1) Eggs (0-24 h old) are placed in 24-well microtiter plate on artificial diet and treated with test solutions by pipetting. After an incubation period of 4 days, samples are checked for egg mortality, larval mortality, and growth regulation.

Series [3] relates to Spodoptera littoralis (Egyptian Cotton Leafworm). Nature of the series: Example B1: activity against Spodoptera littoralis, larvicide, feeding/residual contact, preventive (cotton leaf discs). Type of series: in vivo. Particulars: foliar, 72 h, 3 days after treatment, L1 larvae.
For series [4], the system named is Heliothis virescens (Tobacco Budworm). Nature of the series: Example B2: activity against Heliothis virescens, ovo-larvicide, feeding/contact, curative. The format is in vivo. Particulars: 96 h, 4 days incubation, eggs 0-24 h old. On the procedure:
Activity Against Heliothis virescens (Tobacco Budworm)
(Ovo-Larvicide, Feeding/Contact Activity, Curative)
as §1

The subject of series [5] is Plutella xylostella (Diamond Back Moth). Nature of the series: Example B3: Plutella xylostella, larvicide, feeding/residual contact, preventive (artificial diet MTP). Particulars: 120 h, 5 days incubation, L2 larvae. The format is in vivo. Summed up: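 Artificial diet in multiwell plates treated with test solution, dried, then infested with 10–15 L2 larvae per well. After 5 days, larval mortality, antifeedant effect and growth regulation were scored.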

Series [6] deals with Diabrotica balteata (Corn Root Worm). The series is described as follows: Example B4: Diabrotica balteata, larvicide, feeding/residual contact, preventive. The format is in vivo. Particulars: 120 h, 5 days incubation, L2 larvae. An outline of the steps: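 Artificial diet treated with test solution, dried, then infested with 6-10 L2 larvae per well. Larval mortality, antifeedant effect and growth regulation checked after 5 days of incubation.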

Series [7] concerns Cydia pomonella (Codling Moth). Nature of the series: Example B8: activity against Cydia pomonella (paraffin-coated diet cubes). Type of series: in vivo. Particulars: 336 h, 14 days incubation at 26° C.
Series [8] deals with Frankliniella occidentalis (Western Flower Thrips). Nature of the series: Example B9: activity against Frankliniella occidentalis (bean leaf discs or bean plants). Type of series: in vivo. Particulars: foliar, 6 days (leaf discs) or 14 days (plants) after infestation. Summed up: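 Bean leaf discs on agar or whole bean plants sprayed with diluted test solutions, then infested with a mixed thrips population after drying. Population reduction versus untreated assessed 6 days (discs) or 14 days (plants) after infestation.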

The test system of series [9] is Aphis craccivora (Pea Aphid). The series is described as follows: Example B10: activity against Aphis craccivora, mixed population, contact/feeding. Type of series: in vivo. Particulars: 144 h, 6 days after treatment, spray (contact/feeding). An excerpt:
(§2) Activity Against Aphis craccivora (Pea Aphid)
(Mixed Population, Contact/Feeding)
6 days after treatment, samples are checked for mortality.

Series [10] concerns Aphis craccivora (Pea Aphid). The series is described as follows: Example B11: activity against Aphis craccivora, mixed population, systemic/feeding. Particulars: 144 h, 6 days, roots in test solution (systemic). Type of series: in vivo.
Excerpt: as §2
(§3) (Mixed Population, Systemic/Feeding)
(§4) 6 days later, samples are checked for mortality.

Series [11] concerns Aphis aossypii (Cotton Aphid). The series is described as follows: Example B13: activity against cotton aphid, mixed population, systemic/feeding. Type of series: in vivo. Particulars: 144 h, 6 days, roots in test solution (systemic).
Excerpt: Activity Against Aphis aossypii (Cotton Aphid)
as §3, §4

Series [12] has as its system Thrips tabaci (Onion Thrips). Nature of the series: Example B7: activity against Thrips tabaci, mixed population, feeding/residual contact, preventive. Particulars: 144 h, read-out: activity.
The subject of series [13] is Myzus persicae (Green Peach Aphid). Nature of the series: Example B6: activity against Myzus persicae, mixed population, systemic/feeding, curative (pea seedling roots). Particulars: 144 h, read-out: activity.
Series [14] has the same test system. The series is described as follows: Example B5: activity against Myzus persicae, mixed population, feeding/residual contact, preventive (sunflower leaf discs). Particulars: foliar, 144 h, read-out: activity.
[15] abbreviates: especially at 12.5, 3.1 and 0.8 ppm.

The source of these data is patent US8658801B2, “Pesticides containing a bicyclic bisamide structure” (Syngenta Crop Protection, LLC, priority 2006, dated 2014).

Read-outs that look alike come from different tables or passages of the source. A value given as a limit tells only on which side of the number the result lay.

`Cc1cc2cn[nH]c2c(C(=O)NC2(C3CC3)CC2)c1NC(=O)c1cc(C(F)F)nn1-c1ncccc1Cl`: the melting point (commonly the temperature of the solid-liquid transition) is 224 to 227 °C.

As for `Cc1nc2ccccc2c(C(=O)NC(C)C)c1NC(=O)c1cc(C(F)(F)F)nn1-c1ncccc1Cl` [Compound T81.3, reference compound], the “Death rate (%) after 5 days” value in series [1] (0.8 ppm) is reported as 0%. Further, the “Death rate (%) after 5 days” value in series [1] (3.1 ppm) is 0%. The “Death rate (%) after 5 days” value in series [1] (12.5 ppm) is listed as 60%. Also, the “Death rate (%) after 5 days” value in series [1] (50 ppm) is on record as 100%. For the same compound, in series [2], the inhibition at 0.8 ppm was 0%, the inhibition at 3.1 ppm stood at 25%, the inhibition at 12.5 ppm was 65% and the inhibition at 50 ppm came out at 80%.

Regarding `C#Cc1cc2cn[nH]c2c(C(=O)NC(C)C)c1NC(=O)c1cc(C(F)(F)F)nn1-c1ncccc1Cl` [Example 34, 6-{[2-(3-chloro-pyridin-2-yl)-5-trifluoromethyl-2H-pyrazole-3-carbonyl]-amino}-5-ethynyl-1H-indazole-7-carboxylic acid isopropylamide], the melting point was in the range of 226 to 229 °C.

The compound `CNC(=O)c1c(NC(=O)c2cc(C(F)(F)F)nn2-c2ncccc2Cl)ccc2ncccc12` [Example 46, 6-{[2-(3-chloro-pyridin-2-yl)-5-trifluoromethyl-2H-pyrazole-3-carbonyl]-amino}-quinoline-5-carboxylic acid methylamide] returned a melting point of 210 to 211 °C.

For the compound `CC(C)NC(=O)c1c(NC(=O)c2cc(Cl)nn2-c2ncccc2Cl)c(Cl)cc2cn[nH]c12` [P.43], the pest or weed control at 400 ppm in [3], in series [4], in series [5], in [6], in series [7] and in series [8] was more than 80% throughout. In addition, the pest or weed control at 400 ppm in [9], in series [10], in [11], in [12], in [13] and in series [14] was more than 80% in each case.

`CC(C)NC(=O)c1c(NC(=O)c2cc(C(F)(F)F)nn2-c2ncccc2Cl)ccc2cccnc12` [P.73, 7-{[2-(3-chloro-pyridin-2-yl)-5-trifluoromethyl-2H-pyrazole-3-carbonyl]-amino}-quinoline-8-carboxylic acid isopropylamide] came in with a melting point of 225 to 226 °C.

With `Cc1cc2ncccc2c(C(=O)NC(C)C)c1NC(=O)c1cc(C(F)(F)F)nn1-c1ncccc1Cl` [P.78, 6-{[2-(3-chloro-pyridin-2-yl)-5-trifluoromethyl-2H-pyrazole-3-carbonyl]-amino}-7-methyl-quinoline-5-carboxylic acid isopropylamide], the pest or weed control at 400 ppm in series [4], in series [5] and in series [6] was more than 80% each time. The “Death rate (%) after 5 days” value in series [1] (0.8 ppm) came to 50%; in series [1] (3.1 ppm) it was 100%; in series [1] (12.5 ppm), 100%; in series [1] (50 ppm), 100%. The “insecticidal action compared with the compound from the state of the art (T81.3)” value in series [1] (setting [15]) and in series [2] (setting [15]) was “substantially better insecticidal action” throughout. In [2] (0.8 ppm), the inhibition at 0.8 ppm amounted to 50%. In addition, the inhibition at 3.1 ppm in series [2] (3.1 ppm) was determined as 50%. For the same compound, the inhibition at 12.5 ppm in series [2] (12.5 ppm) was 80%. Moreover, the inhibition at 50 ppm in series [2] (50 ppm) came to 80%.

With `C#Cc1cc2cn[nH]c2c(C(=O)NC(C)C)c1NC(=O)c1cc(C(F)F)nn1-c1ncccc1Cl` [P.80], the melting point fell in the range of 233 to 236 °C.

On to `C#Cc1cc2cn[nH]c2c(C(=O)NC2(C3CC3)CC2)c1NC(=O)c1cc(C(F)F)nn1-c1ncccc1Cl` [P.81], for which the melting point fell in the range of 218 to 221 °C.
